# Experimental data published in EP0821956A1, “Method for treating disruptive behavior disorders” (ELI LILLY AND COMPANY, priority 1996, dated 1998).
# Assays:
# [1] = target: ^3H-oxotremorine-M binding (muscarinic receptors); test: 3H-oxotremorine-M binding study; details: inhibition of binding of ^3H-oxotremorine-M; read-out: inhibition constant (Ki)
# [2] = target: m4 receptors (Homo sapiens, UniProt P08173); format: cell-based; details: CHO m4 cells treated with pertussis toxin
# [3] = target: D2 receptor subtype (Homo sapiens, UniProt P14416); test: pharmacological studies at the D2 receptor subtype
# Chain of D2 receptor subtype (P14416 whole entry): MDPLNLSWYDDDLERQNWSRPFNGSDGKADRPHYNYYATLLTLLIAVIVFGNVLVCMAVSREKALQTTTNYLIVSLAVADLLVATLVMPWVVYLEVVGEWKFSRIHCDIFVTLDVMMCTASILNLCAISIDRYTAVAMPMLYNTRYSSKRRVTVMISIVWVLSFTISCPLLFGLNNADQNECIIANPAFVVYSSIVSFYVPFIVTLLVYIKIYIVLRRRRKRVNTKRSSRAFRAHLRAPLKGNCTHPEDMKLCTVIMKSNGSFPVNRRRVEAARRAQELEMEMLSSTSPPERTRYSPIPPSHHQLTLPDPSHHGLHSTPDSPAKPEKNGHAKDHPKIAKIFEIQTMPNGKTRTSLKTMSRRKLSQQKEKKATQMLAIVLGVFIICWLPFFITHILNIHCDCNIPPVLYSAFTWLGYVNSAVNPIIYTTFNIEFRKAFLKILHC
# Chain of m4 receptors (P08173 whole entry): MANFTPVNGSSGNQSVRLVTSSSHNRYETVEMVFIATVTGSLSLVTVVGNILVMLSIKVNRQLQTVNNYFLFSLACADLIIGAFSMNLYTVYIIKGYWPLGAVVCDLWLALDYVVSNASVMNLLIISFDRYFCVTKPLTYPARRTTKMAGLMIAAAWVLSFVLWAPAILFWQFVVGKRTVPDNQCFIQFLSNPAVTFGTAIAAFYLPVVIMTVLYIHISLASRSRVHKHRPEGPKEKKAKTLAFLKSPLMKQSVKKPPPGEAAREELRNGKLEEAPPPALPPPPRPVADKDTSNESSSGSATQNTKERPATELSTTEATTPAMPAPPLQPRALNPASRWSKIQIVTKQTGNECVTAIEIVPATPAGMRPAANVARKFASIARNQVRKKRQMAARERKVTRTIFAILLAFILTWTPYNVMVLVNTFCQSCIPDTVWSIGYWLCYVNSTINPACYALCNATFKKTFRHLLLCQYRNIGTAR
compound,measurement,setting,value
"CCCCCCOc1nsnc1C1=CCCN(C)C1 [xanomeline, 3-(4-hexyloxy-1,2,5-thiadiazol-3-yl)-1,2,5,6-tetrahydro-1-methylpyridine]",Ki,[1],2 nM
same,formation of cAMP,[2],efficaciously and potently stimulated the formation of cAMP
same,activity at the D2 receptor subtype,[3],active
